Measurements reported in patent US10174015B2, “Substituted heterocyclic derivative, preparation method and use thereof” (Xiamen University, priority 2014, dated 2019).
Read-outs that look alike come from different tables or passages of the source. Marks after values point to notes of the source that are not given here.

Experiments:
[1] = system: adjuvant-induced arthritis rat models; assay: Adjuvant-induced osteoarthritis pain, foot swelling degree; type: in vivo, rats; conditions: 10 mg/Kg; for Foot swelling degree after inflammation: X ± S, n = 10; for effect of inhibiting osteoarthritis pain: rats, indometacin 10 mg/Kg
Procedure: Typical model for studying inflammatory pain medically was used to evaluate the therapeutic effects of compounds on inflammatory pain. 0.1 mL Freund's complete adjuvant was intradermally injected to toe of the left hind foot of the rats in each group to obtain adjuvant-induced arthritis rat models. Foot volume method was used to measure primary and secondary foot swelling degree (swelling degree=volume after inflammation−volume before inflammation), and polyarticular arthritis were scored (5 scoring grades: 0 represents no red swelling; 4 represents red swelling at all the paws including anklebone. The scores are accumulated according to the lesion degree of the rest three limbs not injected with adjuvant, and the highest score is 12). Before inflammation and at 6 h, 12 h, 18 h and 24 h after inflammation, Paw Volume Meter was used to measure the foot volume at the inflammatory side, and the swelling degree was calculated. The model can represent inflammatory pain including, but not only limited to: osteoarthritis pain and fibromyalgia syndrome, inflammatory pain of rheumatic and rheumatoid arthritis, inflammatory pain of endometriosis, inflammatory toothache, ankylosing spondylitis pain, and gouty arthritis pain.

zebrafish embryos = type: in vivo; conditions: for Death number (72 h): n = 30; for Body length (72 h) / Hatching number (72 h) / Heartbeat (72 h) / Unhatching number (72 h) / hatching rate: zebrafish, in vivo, 72 h
Procedure: Fertilized eggs (donated by Zebrafish Research Group, School of Life Sciences, Xiamen University) were incubated in freshly prepared zebrafish embryo culture medium, which was replaced by fresh culture medium every day, and cultured in 28.5° C. incubator. Pure water was placed in the incubator to ensure a certain humidity in the culture environment. The formulation for zebrafish embryo culture medium was following: 5 mM NaCl, 0.17 mM KCl, 0.33 mM CaCl2, 0.33 mM MgSO4, 10-5% methylene blue. The culture medium was prepared with pure water. For example, NaCl: 292.2 mg, KCl: 12.68 mg, CaCl2: 36.63 mg, MgSO4: 39.72 mg, and methylene blue: 0.1 μL were needed for the preparation of 1 L culture medium.
7 Groups were set for each test compound, including 5 experimental groups relating to the test compound at different concentrations (solutions containing the test compound at different concentrations were prepared by using zebrafish embryo culture medium, wherein the concentrations were 10 mg/L, 3 mg/L, 1 mg/L, 0.3 mg/L, 0.1 mg/L), 1 solvent control group (DMSO) and 1 blank control group. The positive control drug was OTC analgesic ibuprofen at concentrations as described above. A 96-well cell culture plate was used to perform the experiment, three wells in parallel were used for each experimental group, and 10 fish eggs were contained in each well.
Culture medium containing a test compound was prepared, and the culture medium was added to a 96-well plate in advance, and each fertilized egg (by reference to the experimental method in OECD No. 212 document, fertilized eggs, which developed normally within 2 h after fertilization, were selected and subjected to exposure. Transparent fish eggs visible to naked eye were normally fertilized, while white fish eggs were dead and discarded. After the selection, the normally fertilized eggs had begun to divide as observed under microscope) was then independently placed in a different well, and cultured in the culture medium containing a test compound at a different concentration. Embryo development status at different stages was observed and photographed with invert microscope, including: […]
II. Hatching number and death number were counted at 72 h after fertilization, and hatching rate and mortality were calculated; […]
V. Heartbeat of young fishes (times/min) was recorded at 72 h and 96 h after fertilization (Recording method: heartbeat of young fishes could be clearly observed under microscope, and the number of heartbeats was recorded for 30 s).

hERG potassium channel = hERG potassium channel (Homo sapiens (Human), UniProt Q12809); assay: hERG potassium channel automated patch clamp in CHO-hERG cells
Procedure: CHO-hERG cells (purchased from ATCC) were incubated in a culture flask. When the cell density reached 60˜80%, the culture medium (Glutamax DMEM/F12 medium (Gibco, Shanghai) containing 10% fetal bovine serum) was removed. The cells were washed with 7 mL PBS once, and then digested by adding 3 mL Detachin cell dissociation buffer. After complete digestion, the resultant mixture was neutralized by adding 7 mL culture medium, and centrifuged. The supernatant was removed with a pipette, 5 mL culture medium was added to re-suspend the cells to ensure a cell density of 2˜5×10^6/mL.
Intracellular fluid and extracellular fluid were prepared as described in the following table.
A certain amount of compound was dissolved in […] at the following concentrations, to prepare the stock solution of compound. 2 μL stock solution of compound was added to 998 μL extracellular fluid, and was subjected to 5-fold serial dilution in extracellular fluid containing 0.2% DMSO to get the final concentrates to be tested.
Single cell giga-seal and formation of whole-cell mode were automatically performed by Sophion Qpatch HT fully automated cell patch clamp systems. After obtaining the whole-cell recording mode, the cell was clamped at −80 mV. The cell first underwent pre-voltage of −50 mV for 50 msec, then underwent depolarization stimulation at 20 mV for 5 sec, and then underwent repolarization at −50 mV for 5 sec, and then the voltage return to −80 mv. The cell underwent the stimulation at the voltage every 15 sec, and the data were recorded for 2 min, then extracellular fluid was administered, and then the data were recorded for 2 min. Then, the administration process begun. The concentration of a test compound started from the lowest concentration, each test concentration was administered for 2 min. […] At least three cells were tested for each concentration (n≥3). The experimental data was analyzed by XLFit software.

Chain of hERG potassium channel (Q12809 whole entry): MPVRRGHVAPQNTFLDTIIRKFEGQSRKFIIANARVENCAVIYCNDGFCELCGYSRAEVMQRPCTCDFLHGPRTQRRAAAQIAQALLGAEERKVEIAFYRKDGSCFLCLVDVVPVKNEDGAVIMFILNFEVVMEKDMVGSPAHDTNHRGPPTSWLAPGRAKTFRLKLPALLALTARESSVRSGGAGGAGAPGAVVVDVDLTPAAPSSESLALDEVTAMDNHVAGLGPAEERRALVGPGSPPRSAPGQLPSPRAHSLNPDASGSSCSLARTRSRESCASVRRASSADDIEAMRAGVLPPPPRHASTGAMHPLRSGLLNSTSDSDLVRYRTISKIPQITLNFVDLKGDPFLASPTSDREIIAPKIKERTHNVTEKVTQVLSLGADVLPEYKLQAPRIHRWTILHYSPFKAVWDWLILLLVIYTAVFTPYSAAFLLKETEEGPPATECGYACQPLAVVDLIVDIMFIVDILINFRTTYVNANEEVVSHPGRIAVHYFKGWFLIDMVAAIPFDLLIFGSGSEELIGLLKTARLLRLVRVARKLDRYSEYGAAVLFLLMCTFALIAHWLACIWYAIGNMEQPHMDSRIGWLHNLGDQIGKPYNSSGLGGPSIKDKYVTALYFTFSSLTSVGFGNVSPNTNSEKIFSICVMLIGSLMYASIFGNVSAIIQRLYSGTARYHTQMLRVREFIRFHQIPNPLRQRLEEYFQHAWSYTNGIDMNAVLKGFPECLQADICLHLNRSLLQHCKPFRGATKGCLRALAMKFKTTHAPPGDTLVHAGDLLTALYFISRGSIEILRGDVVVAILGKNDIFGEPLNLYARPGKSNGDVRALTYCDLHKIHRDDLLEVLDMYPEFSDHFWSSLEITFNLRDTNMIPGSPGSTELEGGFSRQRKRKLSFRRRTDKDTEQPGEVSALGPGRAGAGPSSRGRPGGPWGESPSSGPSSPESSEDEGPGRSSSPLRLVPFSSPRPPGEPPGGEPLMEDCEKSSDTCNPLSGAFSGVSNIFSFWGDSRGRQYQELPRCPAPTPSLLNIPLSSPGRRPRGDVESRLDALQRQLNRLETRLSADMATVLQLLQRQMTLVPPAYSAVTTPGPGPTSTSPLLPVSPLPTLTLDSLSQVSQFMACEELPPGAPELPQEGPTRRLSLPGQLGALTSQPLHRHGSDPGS

Structure (SMILES) | Foot swelling degree after inflammation ([1]; 6 h) | Foot swelling degree after inflammation ([1]; 12 h) | Foot swelling degree after inflammation ([1]; 18 h) | Foot swelling degree after inflammation ([1]; 24 h) | effect of inhibiting osteoarthritis pain [1] | Death number (72 h) (zebrafish embryos; 0.1 mg/L) | Death number (72 h) (zebrafish embryos; 0.3 mg/L) | Death number (72 h) (zebrafish embryos; 1 mg/L) | Death number (72 h) (zebrafish embryos; 3 mg/L) | Death number (72 h) (zebrafish embryos; 10 mg/L) | Body length (72 h) (zebrafish embryos; 0.1 mg/L) | Hatching number (72 h) (zebrafish embryos; 0.1 mg/L) | Heartbeat (72 h) (zebrafish embryos; 0.1 mg/L) | Unhatching number (72 h) (zebrafish embryos; 0.1 mg/L) | Body length (72 h) (zebrafish embryos; 0.3 mg/L) | Hatching number (72 h) (zebrafish embryos; 0.3 mg/L) | Heartbeat (72 h) (zebrafish embryos; 0.3 mg/L) | Unhatching number (72 h) (zebrafish embryos; 0.3 mg/L) | Body length (72 h) (zebrafish embryos; 1 mg/L) | Hatching number (72 h) (zebrafish embryos; 1 mg/L) | also measured
O=C(CCCCCc1ccccc1)N1CCOC1=O [Compound 2, Phenylhexanoyl Oxazolidinone] | 0.35 ± 0.07^c mL | 0.65 ± 0.13^c mL | 1.06 ± 0.14^c mL | 0.89 ± 0.21^c mL | significant effects of inhibiting osteoarthritis pain | 3 | 2 | 1 | 30 | 30 | 3.86 ± 0.05 mm | 27 | 130 ± 3.00 per min | 0 | 3.87 ± 0.05 mm | 28 | 130 ± 3.58 per min | 0 | 3.85 ± 0.06 mm | 29 | Heartbeat (72 h) (zebrafish embryos; 1 mg/L): 128 ± 3.29 per min; Unhatching number (72 h) (zebrafish embryos; 1 mg/L): 0; hatching rate (zebrafish embryos; 1 mg/L): 96.67%; Hatching number (72 h) (zebrafish embryos; 3 mg/L): 0; Unhatching number (72 h) (zebrafish embryos; 3 mg/L): 0; Hatching number (72 h) (zebrafish embryos; 10 mg/L): 0; Unhatching number (72 h) (zebrafish embryos; 10 mg/L): 0; IC50 (hERG potassium channel): > 40 µM
O=C(CCCCCc1cccc(Cl)c1)N1CCOC1=O [Compound 9, 3-Chlorophenylhexanoyl Oxazolidinone] | 0.44 ± 0.09^c mL | 0.75 ± 0.24^c mL | 1.24 ± 0.24^b mL | 1.06 ± 0.18^c mL | significant effects of inhibiting osteoarthritis pain | 2 | 2 | 3 | 30 | 30 | 3.90 ± 0.05 mm | 28 | 129 ± 2.73 per min | 0 | 3.86 ± 0.03 mm | 28 | 130 ± 3.22 per min | 0 | 3.88 ± 0.04 mm | 27 | Heartbeat (72 h) (zebrafish embryos; 1 mg/L): 130 ± 2.76 per min; Unhatching number (72 h) (zebrafish embryos; 1 mg/L): 0; hatching rate (zebrafish embryos; 1 mg/L): 90%; Hatching number (72 h) (zebrafish embryos; 3 mg/L): 0; Unhatching number (72 h) (zebrafish embryos; 3 mg/L): 0; Hatching number (72 h) (zebrafish embryos; 10 mg/L): 0; Unhatching number (72 h) (zebrafish embryos; 10 mg/L): 0; IC50 (hERG potassium channel): > 40 µM
